From paper PMC3356977, “Chemical Inhibition of Bacterial Protein Tyrosine Phosphatase Suppresses Capsule Production” (PLoS ONE, 2012)

Target: T1, CpsB (Streptococcus pneumoniae, UniProt Q9AHD4)
T1 construct: His6CpsB
Assay: inhibition of pNPP dephosphorylation by purified His6CpsB (A410)
Assay type: biochemical

T1 sequence (Q9AHD4 whole entry, looked up): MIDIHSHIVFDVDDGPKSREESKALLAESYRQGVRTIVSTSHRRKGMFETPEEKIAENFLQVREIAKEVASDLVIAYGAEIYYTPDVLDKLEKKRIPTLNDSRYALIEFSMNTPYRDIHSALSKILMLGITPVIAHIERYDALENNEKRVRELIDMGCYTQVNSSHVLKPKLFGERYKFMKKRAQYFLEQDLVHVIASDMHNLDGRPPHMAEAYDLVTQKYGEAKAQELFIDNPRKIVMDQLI

In the case of `CC(C)=CCC/C(C)=C/CC/C(C)=C/CC/C(C)=C/Cc1cc(OS(=O)(=O)O)ccc1O` [FQE, fascioquinol E], the IC50 is reported as 5.21 µM.
